The assay has as its system INS-1E cytokine-induced caspase-3/7, Caspase-Glo luminescence, 48 h. Kind of assay: suppression of cytokine-driven beta-cell apoptosis – INS-1E rat cells, luminescence, orthogonal assay for beta-cell apoptosis protection project, dose response (AID 463206).

Active and inactive are the calls of the source.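 Rule for the calls: active = caspase luminescence falls with dose and the half-maximal concentration AC50 from the fitted curve is at or below a set limit; inconclusive = flat fit at 30 to 70% signal loss, or invalid fit; inactive = AC50 above the limit, or signal rises instead.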

`CC(C)(C)n1nnnc1C(c1ccc(F)cc1)N(Cc1ccc(F)cc1)Cc1ccco1` (stereo unspecified): the AC50 is > 26 µM (inactive).
The result for `CCOc1ccccc1NC(=O)C(=O)N/N=C/c1cc(Br)ccc1O` reads > 26 µM (inactive); that for `COc1cnc(-c2ccccn2)nc1Oc1ccc(Cl)c2ccccc12`, > 26 µM (inactive).
Next, `CCC1(OC(=O)CN)C(=O)OCc2c1cc1n(c2=O)Cc2cc3ccccc3nc2-1` (stereo unspecified): 0.33 µM; `Cc1ccc(/C=N/NC(=O)Cc2ccc(Cl)cc2)c(O)c1`: > 26 µM (inactive).
Next, `Cc1cc(N2CCN(S(=O)(=O)c3ccc(Cl)cc3)CC2)c2ccccc2n1`: > 12 µM (inactive).
For the molecule `Cc1ccc(S(=O)(=O)Nc2ccccc2N(C)S(=O)(=O)c2ccc(C)cc2)cc1`, the AC50 was > 26 µM (inactive).
The result for `CC#CC[N+](C)(C)CCCCCCCC` reads > 26 µM (inactive).
Next, `CNc1nc(N)c([N+](=O)[O-])c(Nc2cccc(F)c2)n1`: > 26 µM (inactive); `CCCCCCCCCCCCCCCC[N+](C)(C)CCN(Cc1ccc(OC)cc1)c1ncccn1`: > 26 µM (inactive).
Next, `COc1ccc(/C=N/Nc2cc(C)nc3ccc(OC)cc23)c(OC)c1`: 10.7 µM; `Clc1cc2cccnc2c2ncccc12`: > 26 µM (inactive); `COc1ccc(C(=O)N/N=C(\c2ccccc2)c2ccccn2)cc1`: > 26 µM (inactive).
For the molecule `CCCC(=O)NC(c1ccc(OC)c(OC)c1)c1cc(Cl)c2cccnc2c1O` (stereo unspecified), the AC50 is > 26 µM (inactive).
Next, `CC1=C(C)/C(=N\OS(=O)(=O)c2ccccc2)C=CC1=O`: > 26 µM (inactive); `c1ccc(-c2nc(NCc3ccco3)c3ccccc3n2)nc1`: > 26 µM (inactive).
Next, `O=c1[nH]c(=O)n(-c2ccc(F)cc2)c2c1C(C(F)(F)F)(C(F)(F)F)N=C(c1ccc(F)cc1)N2`: > 26 µM (inactive).
The result for `CCN1CCN(c2ccc(S(=O)(=O)N3CCCCC3)cc2NC(=O)c2ccc([N+](=O)[O-])o2)CC1` reads > 26 µM (inactive).
For `O=C(NC(Nc1nc2ccc([N+](=O)[O-])cc2s1)(C(F)(F)F)C(F)(F)F)c1cccnc1`, the AC50 was > 26 µM (inactive).
Next, `O=C(Nc1cccc(S(=O)(=O)Nc2ccc(Cl)cc2)c1)c1ccc(Cl)nc1`: > 26 µM (inactive); `CCN1C/C(=C/c2cccc([N+](=O)[O-])c2)C(=O)/C(=C/c2cccc([N+](=O)[O-])c2)C1`: > 26 µM (inactive); `O=C(Nc1nc(-c2ccccn2)cs1)c1ccc(Cl)s1`: > 26 µM (inactive).
The result for `c1ccc2c3c([nH]c2c1)C1(CCNCC1)NCC3` reads > 26 µM (inactive); that for `C=C1C(=O)O[C@@H]2C[C@@H](C)[C@@H]3C=CC(=O)[C@@]3(C)[C@@H](OC(=O)CC(=O)O[C@H]3[C@@H]4C(=C)C(=O)O[C@@H]4C[C@@H](C)[C@@H]4C=CC(=O)[C@]43C)[C@H]12`, > 26 µM (inactive).
The result for `COc1cccc(/C=N/Nc2cc(C)nc(-c3ccccc3O)n2)c1O` reads > 26 µM (inactive); that for `C/C(=N\NC(=O)C(c1ccccc1)c1ccccc1)c1ccccn1`, > 26 µM (inactive).
For the molecule `O=C(NCc1ccccc1)C1=C[C@H](c2csc3ccccc23)C[C@H](OCCCCO)O1`, the AC50 was > 26 µM (inactive).
On to `COc1ccccc1C(CCNCc1ccc(N(C)C)cc1)c1ccc(OC(C)C)cc1` (stereo unspecified), for which the AC50 was > 26 µM (inactive).
The result for `O=C(Nc1nc(-c2ccccn2)cs1)c1ccc([N+](=O)[O-])o1` reads > 26 µM (inactive).
The result for `COC(=O)c1ccccc1NC(=O)c1nc(S(=O)(=O)Cc2ccccc2)ncc1Cl` reads > 26 µM (inactive); that for `O=C1C(=O)c2ccc(-c3ccccc3)cc2-c2ccccc21`, > 26 µM (inactive); that for `CCOc1ccc(-n2c(-c3ccc(OC)cc3)c[n+]3c2CCCCC3)cc1`, > 26 µM (inactive).
The result for `Cc1ccc(-c2cn(-c3ccc(OC(F)F)cc3)c3[n+]2CCCCC3)cc1` reads > 26 µM (inactive); that for `Clc1cccc(N=C2NN=C(c3ccc4c(c3)OCCO4)CS2)c1`, > 26 µM (inactive); that for `O=C(Nc1ccccc1Cl)/C(Cl)=C(\Cl)S(=O)c1ccccc1` (stereo unspecified), > 26 µM (inactive).
On to `Cc1ccc(Cn2c(=N)n(CC(=O)c3ccccc3)c3ccccc32)cc1`, for which the AC50 is > 26 µM (inactive).
For `CCOC(=O)c1c(NC(=O)C[n+]2ccc(Cc3ccccc3)cc2)sc(C)c1C`, the AC50 was > 26 µM (inactive).
Next, `CCC(C)Sc1cccc(-c2nc3ccc(C)cn3c2NCc2ccccc2)c1` (stereo unspecified): > 26 µM (inactive).
The result for `O=C(Nc1ccc(OCC(=O)N2CCC(Cc3ccccc3)CC2)cc1)c1ccco1` reads > 26 µM (inactive); that for `CC(C)(C)c1ccc(/C=C(\c2nc3ccccc3[nH]2)S(=O)(=O)c2ccccc2)cc1`, > 26 µM (inactive); that for `Cc1nc2c(-c3ccc(Cl)cc3)c(C)[nH]n2c(=O)c1Cc1ccccc1`, > 26 µM (inactive).
Turning to `COc1ccc(C(=O)Nc2ccccc2C(=O)N/N=C/c2ccccn2)cc1OC`, the AC50 was > 26 µM (inactive).
The result for `O=C1C=C(Nc2ccc(O)cc2)C(=O)c2ccccc21` reads > 26 µM (inactive).
The result for `O=S1(=O)CCN(Cc2csc(-c3cccs3)n2)CC1` reads > 26 µM (inactive).
Next, `O=C(NC1=C(Nc2ccc(Cl)cc2)C(=O)c2ccccc2C1=O)c1ccccc1`: > 26 µM (inactive).
Turning to `O=[N+]([O-])c1cc(C(F)(F)F)ccc1NCCCCNS(=O)(=O)c1ccc(Cl)cc1`, the AC50 is > 26 µM (inactive).
`COC(=O)C1=C(C)N(Cc2ccccc2)C(=NCc2cccc(C(F)(F)F)c2)N[C@H]1c1cccc(C(F)(F)F)c1`: the AC50 is > 26 µM (inactive).
With `COc1ccc(N=C2S/C(=C\c3ccc(N4CCOCC4)o3)C(=O)N2CCc2c[nH]c3ccccc23)cc1`, the AC50 is > 26 µM (inactive).
Next, `CCCC(=O)NC(c1ccc(Cl)cc1)c1ccc2cccnc2c1O` (stereo unspecified): > 26 µM (inactive); `O=C(NCc1nc2ccccc2[nH]1)C1=C[C@@H](C2CCCCC2)C[C@@H](OCc2ccc(CO)cc2)O1`: > 26 µM (inactive).
Next, `O=S(=O)(/C(=C/c1ccc(C(F)(F)F)cc1)c1nc2ccccc2[nH]1)c1ccccc1`: > 26 µM (inactive).
Next, `O=C(Oc1c(Cl)cc(Cl)c2cccnc12)c1cccs1`: > 12 µM (inactive); `C=C1[C@@H](O)[C@@H]2O[C@]3(CC[C@H](/C=C/[C@@H](C)[C@@H]4CC(C)=CC5(O[C@H](C[C@@](C)(O)C(=O)OC)CC[C@H]5O)O4)O3)CC[C@H]2O[C@@H]1[C@@H](O)C[C@H](C)[C@H]1OC2(CCCCO2)CC[C@H]1C` (stereo partly specified): > 26 µM (inactive); `O=C(COC(=O)c1cn(-c2ccccc2)nc1-c1ccccc1)c1cccc([N+](=O)[O-])c1`: > 26 µM (inactive).
For `COc1ccc(OC)c2sc(N(CCCN(C)C)C(=O)c3ccc(S(=O)(=O)N4CCc5ccccc5C4)cc3)nc12`, the AC50 is > 26 µM (inactive).
The result for `c1ccc2c(c1)OCC(CNc1ncnc3sccc13)O2` (stereo unspecified) reads > 26 µM (inactive); that for `Cc1ccc(-c2cn(-c3ccc(SC(F)F)cc3)c3[n+]2CCC3)cc1`, > 26 µM (inactive); that for `Cc1ccc(-c2cc3cccc[n+]3cc2-c2ccc(C)cc2)cc1`, > 26 µM (inactive).
Next, `COc1ccc(C(NC(C)=O)c2cc(Cl)c3cccnc3c2O)cc1` (stereo unspecified): > 26 µM (inactive).
For the molecule `Cc1ccc(NC2=CC(=O)C(=O)c3ccccc32)cc1`, the AC50 was > 26 µM (inactive).
Next, `O=C(Nc1cc(S(=O)(=O)N2CCCCC2)ccc1Cl)c1ccccc1NS(=O)(=O)c1ccc(F)cc1`: > 26 µM (inactive); `Cc1ccnc(NC(=O)c2ccc([N+](=O)[O-])s2)c1`: > 26 µM (inactive); `CCCCS(=O)(=O)/C=C\C=C/S(=O)(=O)CCCC`: > 26 µM (inactive).
Next, `Nc1nonc1-n1nnc(C(=O)N/N=C/c2ccccc2O)c1CN1CCCC1`: > 26 µM (inactive); `COc1cc(SC#N)ccc1N=Cc1c(C)[nH]n(-c2ccc(C)cc2)c1=O`: > 26 µM (inactive); `COC(=O)C1CCCCN1C(=O)c1cc(COc2cccc3cnccc23)on1` (stereo unspecified): > 26 µM (inactive).
The result for `COc1nc(Nc2nc3ccccc3c(=O)[nH]2)nc2ccc(C)cc12` reads > 26 µM (inactive); that for `O=[N+]([O-])c1ccc(O)c(/C=N/Nc2ccccn2)c1`, > 26 µM (inactive); that for `Cc1occc1C(=O)N1CCCC(N2CCN(c3cccc(C(F)(F)F)c3)CC2)C1` (stereo unspecified), > 26 µM (inactive).
As for `CCCCC(=O)NC(c1ccco1)c1cc(Cl)c2cccnc2c1O` (stereo unspecified), the AC50 was > 26 µM (inactive).
The result for `C=C1C(=O)O[C@@H]2C[C@@H](C)[C@@H]3C=CC(=O)[C@@]3(C)[C@@H](OC(C)=O)[C@H]12` reads > 26 µM (inactive).
Next, `Cc1cc(OCC(=O)N(C)Cc2ccccc2)ccc1Cl`: > 26 µM (inactive); `Cc1sc2ncnc(NCC(O)c3ccccc3)c2c1C` (stereo unspecified): 23.5 µM.
The result for `C=CCc1c(C)nc(C)nc1N/N=C/c1ccc(N(C)C)cc1` reads > 26 µM (inactive); that for `O=C(NCc1ccccn1)c1cc(-c2ccc(Cl)cc2)oc1C(F)(F)F`, > 26 µM (inactive); that for `COc1ccc(C)cc1Nc1n[n+](-c2ccccc2)c(-c2ccc(N(C)C)cc2)s1`, > 26 µM (inactive).
Regarding `COc1ccc(N(C)S(=O)(=O)c2cccc(C(=O)Nc3nc(C)c(C(C)=O)s3)c2)cc1`, the AC50 was > 26 µM (inactive).
Consider `O=[N+]([O-])/C=C/c1cn(Cc2ccc(F)cc2)c2ccccc12`, for which the AC50 is > 26 µM (inactive).
The result for `COc1ccc(Cn2c(SCc3ccccc3C)nc3cc(OC)c(OC)cc3c2=N)cc1` reads > 26 µM (inactive); that for `CCN(CC)CCNc1ncnc2c1sc1nc(N3CCOCC3)c3c(c12)CC(C)(C)SC3`, 23.6 µM; that for `Cc1cc(-n2c(SCC(=O)Nc3ccc(F)c(F)c3)nc3n[nH]c(C)c3c2=N)ccc1Cl`, > 26 µM (inactive).

The values are drawn from PubChem BioAssay AID463206 (Broad Institute, 2010).
